Experimental data reported in ChEMBL document CHEMBL3885861, “Open TG-GATES”.

Species on record: Rattus norvegicus
Experiment: Open TG-GATES - Regimen: Single
Assay type: toxicity, organism-based, Sprague-Dawley
Parameters: regimen Single, gender Male, age 6 weeks
Details: in vivo, iv, route intravenous injection; for KIDNEY_L / KIDNEY_R / KIDNEY_TOTAL: tissue Kidney; for LIVER: tissue Liver; for ALP / ALT / AST / BUN / CRE / DBIL / GLC / IP / K / PL / RALB / TBIL / TC / TG / TP / gamma-GTP / LDH / Na: tissue Plasma
[1] = 0 mg/kg, 3 h, dose level Control
[2] = 0 mg/kg, 3 h, tissue Blood, dose level Control
[3] = 0 mg/kg, 6 h, dose level Control
[4] = 0 mg/kg, 6 h, tissue Blood, dose level Control
[5] = 0 mg/kg, 9 h, dose level Control
[6] = 0 mg/kg, 9 h, tissue Blood, dose level Control
[7] = 0 mg/kg, 24 h, dose level Control
[8] = 0 mg/kg, 24 h, tissue Blood, dose level Control

CARBOPLATIN
TERMINAL_BW [1]: 198.4 g | Bas [2]: 0% | Eos [2]: 0.4% | Fbg [2]: 277.4 mg/dL | Lym [2]: 80% | MCH [2]: 21.1 pg | MCHC [2]: 32.1% | MCV [2]: 65.9 fL | Mono [2]: 2.2% | Neu [2]: 16.2% | PT [2]: 16 s | Plat [2]: 125.4 x10_4/uL | RBC [2]: 633.2 x10_4/ul | Ret [2]: 6.4% | WBC [2]: 107.8 x10_2/uL | KIDNEY_L [1]: 0.9 g | KIDNEY_R [1]: 0.9 g | KIDNEY_TOTAL [1]: 1.8 g | LIVER [1]: 9.1 g | ALP [1]: 1848.6 IU/L | ALT [1]: 47 IU/L | AST [1]: 86.2 IU/L | BUN [1]: 13.6 mg/dL | CRE [1]: 0.2 mg/dL | DBIL [1]: 0 mg/dL | GLC [1]: 197.2 mg/dL | IP [1]: 8.3 mg/dL | K [1]: 3.9 meq/L | PL [1]: 127.8 mg/dL | RALB [1]: 3 g/dL | TBIL [1]: 0.012 mg/dL | TC [1]: 71.8 mg/dL | TG [1]: 43 mg/dL | TP [1]: 5.5 g/dL | gamma-GTP [1]: 1.2 IU/L | TERMINAL_BW [3]: 200.5 g | APTT [4]: 24.3 s | Bas [4]: 0% | Eos [4]: 0.8% | Fbg [4]: 274.2 mg/dL | Lym [4]: 80.8% | MCV [4]: 64 fL | Mono [4]: 2.6% | Neu [4]: 15.4% | PT [4]: 16.1 s | Plat [4]: 119.1 x10_4/uL | RBC [4]: 645.6 x10_4/ul | Ret [4]: 6.5% | WBC [4]: 98 x10_2/uL | KIDNEY_L [3]: 0.9 g | KIDNEY_R [3]: 0.9 g | KIDNEY_TOTAL [3]: 1.8 g | LIVER [3]: 8.5 g | ALP [3]: 1354.4 IU/L | AST [3]: 77 IU/L | BUN [3]: 11.4 mg/dL | CRE [3]: 0.2 mg/dL | DBIL [3]: 0 mg/dL | GLC [3]: 180.6 mg/dL | IP [3]: 9.3 mg/dL | K [3]: 4.4 meq/L | LDH [3]: 202.4 IU/L | PL [3]: 128 mg/dL | RALB [3]: 2.9 g/dL | TBIL [3]: 0.01 mg/dL | TC [3]: 74.2 mg/dL | TG [3]: 74.2 mg/dL | TP [3]: 5.3 g/dL | gamma-GTP [3]: 1.4 IU/L | TERMINAL_BW [5]: 195.2 g | APTT [6]: 24.6 s | Bas [6]: 0% | Eos [6]: 0.6% | Fbg [6]: 296.4 mg/dL | Hb [6]: 13 g/dL | Lym [6]: 77.2% | MCHC [6]: 31.9% | MCV [6]: 64.4 fL | Mono [6]: 2% | Neu [6]: 19.8% | PT [6]: 16 s | Plat [6]: 121.6 x10_4/uL | RBC [6]: 635.2 x10_4/ul | Ret [6]: 6.3% | WBC [6]: 80.5 x10_2/uL | KIDNEY_L [5]: 0.9 g | KIDNEY_R [5]: 0.9 g | KIDNEY_TOTAL [5]: 1.8 g | LIVER [5]: 8.2 g | ALP [5]: 1521.4 IU/L | ALT [5]: 38.8 IU/L | AST [5]: 75.2 IU/L | CRE [5]: 0.2 mg/dL | DBIL [5]: 0 mg/dL | GLC [5]: 182.2 mg/dL | IP [5]: 9.7 mg/dL | K [5]: 4.3 meq/L | LDH [5]: 155 IU/L | Na [5]: 140.4 meq/L | PL [5]: 123.6 mg/dL | RALB [5]: 2.9 g/dL | TBIL [5]: 0.008 mg/dL | TC [5]: 72.4 mg/dL | TG [5]: 57.2 mg/dL | TP [5]: 5.3 g/dL | gamma-GTP [5]: 1 IU/L | TERMINAL_BW [7]: 214.9 g | APTT [8]: 23.2 s | Bas [8]: 0% | Eos [8]: 1% | Fbg [8]: 280.2 mg/dL | Lym [8]: 82.8% | MCHC [8]: 32.1% | MCV [8]: 63 fL | Mono [8]: 2.4% | PT [8]: 16.6 s | Plat [8]: 124.1 x10_4/uL | RBC [8]: 648.4 x10_4/ul | Ret [8]: 5.2% | WBC [8]: 108.2 x10_2/uL | KIDNEY_L [7]: 1 g | KIDNEY_R [7]: 1 g | KIDNEY_TOTAL [7]: 2 g | LIVER [7]: 9.7 g | ALP [7]: 1592.8 IU/L | ALT [7]: 42.2 IU/L | AST [7]: 73 IU/L | BUN [7]: 16.6 mg/dL | CRE [7]: 0.2 mg/dL | DBIL [7]: 0 mg/dL | GLC [7]: 183 mg/dL | IP [7]: 7.2 mg/dL | K [7]: 4.5 meq/L | LDH [7]: 175 IU/L | Na [7]: 140.4 meq/L | PL [7]: 133.4 mg/dL | RALB [7]: 2.9 g/dL | TBIL [7]: 0.006 mg/dL | TC [7]: 69.6 mg/dL | TG [7]: 84.4 mg/dL | TP [7]: 5.4 g/dL | gamma-GTP [7]: 1.2 IU/L | TERMINAL_BW (10 mg/kg, 3 h, dose level Low): 205.7 g
